Entries after “also recorded” stand apart in the source; their conditions may differ.
Columns and labels:
[1] = tested on: C57BL/6 mice; test: Open Field Test in mice after chronic stress (MSP); format: in vivo
Method: C57BL/6 male and female infant mice were subjected to chronic stress (MSP) by separation from the dam for 6 hours per day from day 1 to day 14. Anxiety behavior was tested after different anxiolytic treatments. The mice received a daily i.p. injection from day 28 of age for two weeks, of one of the following drugs: Citalopram (10 mg/kg), or the adaptogenic composition of the invention comprising Hawthorn fruit, wheat grain and Lilly Bulb (10 mg/kg). The anxiety behavior was tested in the Open Field Test.

[2] = tested on: mice subjected to maternal separation and unpredictable mild stress; test: Elevated plus maze, treatment during stress; format: in vivo; settings: 15 mg/kg i.p., 28 days during stress; control (saline) 44 seconds; p<0.05
Method: (§1) The day following parturition, postnatal day (PND) 1, the litters underwent a Maternal Separation (MS) procedure that was carried out once a day from PND 1-14. At the age of 21 days, all pups were weaned and sexed. 90 male mice were tagged, weighed, and separated into cages of up to five mice per cage, assigned randomly into four groups of treatment as previously described. Between the age of 28 and 56 days (Adolescence), mice were subjected to an Unpredictable Mild Stress paradigm. In this experiment three different stressors were used—all mice were subjected once a day to one of the following stressors: restrainers; placement in an empty cage with water at the bottom; or inversion of light/dark cycle. To prevent habituation and to provide an unpredictable feature to the stressors, every day different stressor was administered for four hours, at different time points of the day. During the entire stress paradigm, drugs were administrated through i.p. injection of the relevant treatment, for the duration of 28 days. Upon reaching adulthood and following four weeks of treatment, behavior, peripheral hormones and brain monoamines were measured in order to assess the effects of the novel treatment. […]

[3] = tested on: Corticosterone; test: Corticosterone levels following acute restraint stress (RIA), treatment after chronic stress; format: in vivo; settings: stressed ICR mice, 15 mg/kg i.p., 3 weeks, p<0.05 adaptogenic mixture, p<0.01 escitalopram
Method: In order to estimate the endocrinology reaction to acute stress mice were first placed in restraint. Restraint stress is a well documented stressor that initiates an acute transient increase in plasma ACTH and Corticosterone, usually peaking during the course of a 60 min stress exposure. Therefore, following 60 minutes of subjection to restraint stress, blood samples were collected into EDTA-coated tubes from the facial vein. All blood samples were kept on ice and later centrifuged for 10 min at 10000 rpm at 4°. Plasma was transferred to clean, labeled 1.5 ml microcentrifuge tubes. All plasma samples were stored frozen at −20 C.° until the determination of Corticosterone via RIA. Subsequent to the stress manipulations, anxiety-like behavior was assessed via the elevated plus maze in order to assess the effect of the stress manipulations. […] Following three weeks of treatment with the relevant drug or vehicle, anxiety-like behavior was assessed via the elevated plus maze. 48 hours thereafter and while mice were still receiving treatment, blood samples were collected following acute stress and Corticosterone levels were measured via radio immunoassay (RIA) assay. […] Anxiety-related behaviors were assessed using the elevated-plus maze and indicated anxiogenic effect of the stress manipulation. […]

[4] = tested on: mice subjected to maternal separation and unpredictable mild stress; test: Sucrose test, treatment during stress; format: in vivo; settings: escitalopram group (15 mg/kg as previously described) i.p., 28 days during stress; control (saline) 51 ml; p<0.05
Method: The day following parturition, postnatal day (PND) 1, the litters underwent a Maternal Separation (MS) procedure that was carried out once a day from PND 1-14. At the age of 21 days, all pups were weaned and sexed. 90 male mice were tagged, weighed, and separated into cages of up to five mice per cage, assigned randomly into four groups of treatment as previously described. Between the age of 28 and 56 days (Adolescence), mice were subjected to an Unpredictable Mild Stress paradigm. In this experiment three different stressors were used—all mice were subjected once a day to one of the following stressors: restrainers; placement in an empty cage with water at the bottom; or inversion of light/dark cycle. To prevent habituation and to provide an unpredictable feature to the stressors, every day different stressor was administered for four hours, at different time points of the day. During the entire stress paradigm, drugs were administrated through i.p. injection of the relevant treatment, for the duration of 28 days. Upon reaching adulthood and following four weeks of treatment, behavior, peripheral hormones and brain monoamines were measured in order to assess the effects of the novel treatment. […] After the 12 hours, the amount of ordinary water, sucrose water and food eaten by the mouse, was calculated. […]

[5] = tested on: ICR mice; test: Elevated plus maze after maternal separation and unpredictable chronic mild stress, treatment after stress; format: in vivo; settings: stressed ICR mice, 15 mg/kg i.p., 21 days, p<0.05
Method: On the day of parturition, PND 0 (postnatal day), litters were randomly assigned to undergo MS or to be standard facility reared (SFR) controls. SFR animals were left undisturbed during the entire stress manipulation (both maternal separation and unpredictable chronic mild stress manipulation), except for routine cage maintenance performed once a week. MS procedure was carried out once per day from PND 1-14. The MS procedure was performed by removing the pups from the home cage and placing them together in a separate clean cage placed on a heating pad (30-33° C.) in order to keep the pups in a temperature close to the dam's natural body temperature. 6 hours later, pups were returned to their home cage. […] Elevated plus-maze: Each mouse was placed in the center of the elevated plus maze and his behavior was recorded for the duration of 5 minutes. […] Subsequent to the stress manipulations, anxiety-like behavior was assessed via the elevated plus maze in order to assess the effect of the stress manipulations. […] Following three weeks of treatment with the relevant drug or vehicle, anxiety-like behavior was assessed via the elevated plus maze. 48 hours thereafter and while mice were still receiving treatment, blood samples were collected following acute stress and Corticosterone levels were measured via radio immunoassay (RIA) assay. […]

[6] = tested on: Brain-derived neurotrophic factor (BDNF); test: Hippocampal BDNF levels by EIA, treatment during stress; format: in vivo, mice; settings: escitalopram group (15 mg/kg as previously described), 28 days during stress; control (saline) 12 pc/μg; p<0.05
Method: The day following parturition, postnatal day (PND) 1, the litters underwent a Maternal Separation (MS) procedure that was carried out once a day from PND 1-14. At the age of 21 days, all pups were weaned and sexed. 90 male mice were tagged, weighed, and separated into cages of up to five mice per cage, assigned randomly into four groups of treatment as previously described. Between the age of 28 and 56 days (Adolescence), mice were subjected to an Unpredictable Mild Stress paradigm. In this experiment three different stressors were used—all mice were subjected once a day to one of the following stressors: restrainers; placement in an empty cage with water at the bottom; or inversion of light/dark cycle. To prevent habituation and to provide an unpredictable feature to the stressors, every day different stressor was administered for four hours, at different time points of the day. During the entire stress paradigm, drugs were administrated through i.p. injection of the relevant treatment, for the duration of 28 days. Upon reaching adulthood and following four weeks of treatment, behavior, peripheral hormones and brain monoamines were measured in order to assess the effects of the novel treatment.
At the end of the experiment, all treated mice were sacrificed. The brains of the mice were placed in a mold on ice. […] Brain-derived neurotrophic factor (BDNF) was measured by EIA. […]

[7] = tested on: Corticosterone; test: Corticosterone levels following acute restraint stress (RIA), treatment during stress; format: in vivo, mice; settings: escitalopram group (15 mg/kg as previously described), 28 days during stress; control 80.9 ng/ml; p<0.05
Method: as §1, with “treatment. In order to estimate the endocrinological reaction to acute stress, mice were first placed in restrainers.” for “treatment.”

[8] = tested on: BALB mice; test: Novel open field test after acute stress (Yohimibine injection); format: in vivo; settings: 15 mg/kg/day i.p., three weeks of treatment, after Yohimibine i.p. 1.25 mg/kg, p<0.05 adaptogenic mixture, p<0.0.1 escitalopram
Method: FIG. 2A: Effect of treatment in the novel open field Test following one week of treatment. FIG. 2B: Effect of treatment in the novel open field Test following two weeks of treatment. […] Mice were treated through i.p. injection with the adaptogenic mixture (15 mg/kg/day), escitalopram (15 mg/kg/day) or vehicle. The acute stress was obtained with Yohimibine i.p injection, a drug known to activate a stress-reaction (Vasa et al., 2009). […] The Novel Open Field is another well-established test of anxiety-related behavior in rodents. The Open Field area generally consists of an empty and bright square arena, surrounded by walls to prevent the rodent from escaping. The rodent is usually placed in the center of the arena and its behavior recorded over a chosen period. The Novel Open Field task approaches the conflict between the innate fear that rodents have of the central area of a novel or brightly lit open field versus their desire to explore new environments. When anxious, the natural tendency of rodents is to prefer staying close to the walls. In this context, anxiety-related behavior is measured by the degree to which the rodent avoids the center of the arena.

| Structure (SMILES) | Time inside the center of the arena, Open Field Test ([1]; MSP (chronically stressed) C57BL/6 mice, 10 mg/kg i.p. daily for two weeks, saline 1.8 seconds, n=16) [s] | Entries to the inside of the arena, Open Field Test ([1]; MSP C57BL/6 mice, 10 mg/kg i.p. daily for two weeks, saline 1.6 times, n=16) [times] | Time inside the center of the arena, Open Field Test ([1]; treated, unstressed mice, 10 mg/kg i.p., saline unstressed 4.5 seconds) [s] | Time spent in the open arms, Elevated Plus Maze [2] [s] | Corticosterone levels following acute restraint stress in comparison to control group [3] | Sucrose consumption, sucrose test [4] [mL] | Time spent in the open arms in comparison to control group, elevated plus maze [5] | BDNF levels (hippocampus) [6] [pc/μg] | Corticosterone levels following acute restraint stress [7] [ng/mL] | Time spent inside the field of the control group in comparison to the treated group, novel open field [8] |
| --- | --- | --- | --- | --- | --- | --- | --- | --- | --- | --- |
| CN(C)CCCC1(c2ccc(F)cc2)OCc2cc(C#N)ccc21 (stereo not shown) [Citalopram] | 2.5 | 2.4 | 4.6 |  |  |  |  |  |  |  |
| CN(C)CCC[C@@]1(c2ccc(F)cc2)OCc2cc(C#N)ccc21 [escitalopram, Escitalopram] |  |  |  | 64 | significantly lower; also recorded: same effect | 55 | significantly more time; also recorded: same effect | 16 | 77.3 | significantly less pronounced |

Source: patent publication US9320772B2, “Herbal composition for treating anxiety related conditions” (OPMOP LTD., priority 2010, dated 2016)
